By IC50 is commonly meant the point on the concentration scale where inhibition reaches its midpoint. Read a high IC50 as weaker potency in that assay. As usually defined, the CC50 is the concentration at which the toxic effect on the cells reaches its halfway point. High values mean lower toxicity to the cells, low ones greater toxicity to the cells. Usually melting point stands for the temperature, or range, at which the solid turns liquid.

The text below walks through data of US6828350B1, “Modulators of cysteine protease” (Exegenics Inc., priority 1997, dated 2004).

One data set concerns HRV 14. The data set can be described thus: Antiviral assay, XTT method, HRV 14. It is filed as cell-based. Conditions: HRV 14.
A further data set concerns HRV 16. Put plainly: Antiviral assay, XTT method, HRV 16. It is filed as cell-based. Conditions: HRV 16; Format 2. Background: Tetrazolium assays rely on reduction of a dye to a coloured formazan, in cell work by metabolically active cells.
The test system of a further data set is 3C protease. The following applies: background, in words; cited from earlier work.
The subject of data set [1] is elastase present in erythrocytes. Conditions: background, in words; cited from earlier work.
The next data set deals with HRV 1B. Put plainly: Antiviral assay, XTT method, HRV 1B. In kind it is cell-based. The following applies: HRV 1B; Format 2.
Another data set deals with HRV 1A. The data set can be described thus: Antiviral assay, XTT method, HRV 1A. It is filed as cell-based. Conditions: Format 2.
A short description of data set [2]: Cytotoxicity by XTT assay (treated, mock-infected cells). The following applies: human, H1-HeLa cells (ATCC), mock-infected.
Another data set concerns the target T1, Apopain (caspase-3) (Homo sapiens, UniProt P42574).
T1 construct: purchased Bio-rad FluorAce Apopain Assay Kit (booklet 4100119)
T1 sequence (P42574 29-175 limits assumed): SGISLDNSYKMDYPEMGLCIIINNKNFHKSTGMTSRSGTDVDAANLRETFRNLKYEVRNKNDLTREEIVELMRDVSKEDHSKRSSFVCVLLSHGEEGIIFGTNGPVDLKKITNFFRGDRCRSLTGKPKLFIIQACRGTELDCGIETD
T1 sequence (P42574 176-277 limits assumed): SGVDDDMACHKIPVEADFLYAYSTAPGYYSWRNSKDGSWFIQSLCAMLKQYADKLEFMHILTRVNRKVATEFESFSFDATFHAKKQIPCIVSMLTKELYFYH
The data set can be described thus: Apopain (Caspase-3) Regulation Assay (FluorAce Apopain Assay Kit). It is filed as biochemical. Conditions: Apopain modulation: Inhibitor or Activator. The method, then: VI: Apopain (Caspase-3) Regulation Assay
The FluorAce™ Apopain Assay Kit (Bio-rad) was employed in multiwell format. Compounds assayed were diluted 5-fold in distilled water (from stock solutions in ethanol or DMSO) and centrifuged (5′, 14K rpm). 10 μL of the supernatant was further diluted in wells containing 100 μL distilled water and 40 μL 6×Buffer (41.7 mM PIPES, pH 7.4, 8.3 mM EDTA, 0.42% CHAPS, 20.8 mM DTT). This process was carried out twice to yield duplicate wells for each compound. Control wells were prepared by addition of EtOH and DMSO (5-fold diluted in distilled water) into wells containing 6×Buffer and distilled water (40 μL and 100 μL, respectively), to form 8 wells with each solvent. Enzyme (stock solution 10-fold diluted in distilled water, see Bio-rad booklet 4100119) was added to one set of compound-containing cells and to 8 control wells (4 with ethanol and 4 with DMSO). The plate was preincubated for ˜80′ at 27°-28° C. Substrate (Z-DEVD-AFC, 490 μM, 40 μL) was then added to all wells. The plate was left at room temperature and fluorescence (360/40↑530/20↓) was measured at several time points (FL500 fluorimetric reader, Bio-tek instruments). Fluorescence at enzyme-containing wells was background-subtracted at each time point and initial rates were determined by linear regression (typically R^2>0.97). Percentage inhibition and activation was determined by relating the slope with compound to the control slope (with appropriate solvent). IC50 values are extrapolated.

Where [3] appears, read: Format 1, restores 50% of viral-caused decrease in cell viability.

For the molecule `O=C(NCc1ccccc1)c1cc([N+](=O)[O-])cc([N+](=O)[O-])c1O` [SA#120], the IC50 with HRV 14 (setting [3]) was found to be 30 µM; in the data set on HRV 14 (Format 2), 40 ± 33 µM; in the data set with HRV 16 it was 30 ± 8 µM. For the same molecule, in the data set with Hl-Hela cells, it took 271 ± 22 µM to reach half-maximal cytotoxicity (CC50).
As for `C/C=C/c1cc2c(c(=O)o1)C(=O)[C@@H](O)[C@H](C)O2` [radicinin], the “inhibition of the 3C protease” value in the data set with 3C protease is listed as “lower level of inhibition than thysanone”.
For `C[C@H]1CC2=C(C(=O)c3c(O)cc(O)cc3C2=O)[C@H](O)O1` [Thysanone], in the data set with 3C protease, the “inhibition of the 3C protease” value is “inhibitor of the 3C protease”. Besides, the inhibition of elastase entry in data set [1] was “efficient inhibitor”.
As to `O=C(NCCc1ccccc1)c1cc([N+](=O)[O-])cc([N+](=O)[O-])c1O` [SA#127], the IC50 in the data set with HRV 14 (setting [3]) is 23 µM; in the data set with HRV 14 (Format 2) it was 16 ± 4 µM; in the data set with HRV 16 it was 15 ± 4 µM; in the data set with HRV 1B it was 11 ± 1 µM; in the data set on HRV 1A, 13 ± 3 µM. For the same molecule, the 50% cytotoxic concentration (CC50) in the data set on Hl-Hela cells worked out at 187 ± 18 µM.
For the molecule `COc1ccc(O)c(C(C)=O)c1` [compound 37], the IC50 in the data set with HRV 14 (setting [3]) was 146 µM; with HRV 14 (Format 2), 220 ± 23 µM; with HRV 16 it was 149 ± 148 µM; in the data set on HRV 1B, 610 ± 160 µM; in the data set on HRV 1A it was 830 ± 330 µM. Also, the CC50 in data set [2] was more than 1250 µM. For the same molecule, the Activity entry on Apopain (caspase-3) was “Inhibitor”.
For the molecule `CCCCCCCCNC(=O)c1cc([N+](=O)[O-])cc([N+](=O)[O-])c1O` [SA#128], the IC50 in the data set with HRV 14 (setting [3]) was found to be 152 µM; with HRV 14 (Format 2) it was 31 ± 6 µM; in the data set with HRV 16 it was 4 ± 3 µM. In the data set with Hl-Hela cells, this molecule had a CC50 of 429 ± 42 µM.
Consider `CC(=O)c1c(O)cccc1OCC(N)=O` (hydrate or solvate) [SA#121, 2-(2-acetyl-3-hydroxyphenoxy)-acetamide], for which the melting point was in the range of 151 to 152 °C.
